This note sets out measurements from paper PMC10163056, “Vortioxetine hydrobromide inhibits the growth of gastric cancer cells in vivo and in vitro by targeting JAK2 and SRC” (Oncogenesis, 2023).

One experiment concerns the target SRC (Homo sapiens, UniProt P12931). The experiment is described as follows: Kinase-Lumi luminescent kinase assay; also in vitro kinase assay with recombinant SRC and STAT3, bead pull-down of recombinant protein, CETSA in AGS and HGC27 cells. In kind it is biochemical.
The next experiment has as its target JAK2 (Homo sapiens, UniProt O60674). The experiment is described as follows: Kinase-Lumi luminescent kinase assay; also in vitro kinase assay with recombinant JAK2 and STAT3, bead pull-down of recombinant protein, CETSA in AGS and HGC27 cells. Type of experiment: biochemical.

Structures can show the parent of a compound that is named as a salt.

Sequence of SRC (P12931 2-536): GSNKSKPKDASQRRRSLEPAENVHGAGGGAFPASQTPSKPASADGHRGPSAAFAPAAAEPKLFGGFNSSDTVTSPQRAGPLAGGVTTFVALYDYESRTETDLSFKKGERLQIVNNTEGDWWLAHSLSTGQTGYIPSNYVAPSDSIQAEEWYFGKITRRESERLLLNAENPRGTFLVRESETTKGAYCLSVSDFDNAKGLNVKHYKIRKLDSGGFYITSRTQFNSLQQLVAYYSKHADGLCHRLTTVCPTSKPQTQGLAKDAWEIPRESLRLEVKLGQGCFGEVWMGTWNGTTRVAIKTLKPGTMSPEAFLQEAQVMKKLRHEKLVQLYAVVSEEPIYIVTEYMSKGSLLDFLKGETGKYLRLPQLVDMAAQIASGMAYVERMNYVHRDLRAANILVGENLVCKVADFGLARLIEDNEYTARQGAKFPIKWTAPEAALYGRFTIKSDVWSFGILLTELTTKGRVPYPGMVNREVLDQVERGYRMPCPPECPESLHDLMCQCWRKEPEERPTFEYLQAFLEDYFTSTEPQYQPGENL
Sequence of JAK2 (O60674 whole entry): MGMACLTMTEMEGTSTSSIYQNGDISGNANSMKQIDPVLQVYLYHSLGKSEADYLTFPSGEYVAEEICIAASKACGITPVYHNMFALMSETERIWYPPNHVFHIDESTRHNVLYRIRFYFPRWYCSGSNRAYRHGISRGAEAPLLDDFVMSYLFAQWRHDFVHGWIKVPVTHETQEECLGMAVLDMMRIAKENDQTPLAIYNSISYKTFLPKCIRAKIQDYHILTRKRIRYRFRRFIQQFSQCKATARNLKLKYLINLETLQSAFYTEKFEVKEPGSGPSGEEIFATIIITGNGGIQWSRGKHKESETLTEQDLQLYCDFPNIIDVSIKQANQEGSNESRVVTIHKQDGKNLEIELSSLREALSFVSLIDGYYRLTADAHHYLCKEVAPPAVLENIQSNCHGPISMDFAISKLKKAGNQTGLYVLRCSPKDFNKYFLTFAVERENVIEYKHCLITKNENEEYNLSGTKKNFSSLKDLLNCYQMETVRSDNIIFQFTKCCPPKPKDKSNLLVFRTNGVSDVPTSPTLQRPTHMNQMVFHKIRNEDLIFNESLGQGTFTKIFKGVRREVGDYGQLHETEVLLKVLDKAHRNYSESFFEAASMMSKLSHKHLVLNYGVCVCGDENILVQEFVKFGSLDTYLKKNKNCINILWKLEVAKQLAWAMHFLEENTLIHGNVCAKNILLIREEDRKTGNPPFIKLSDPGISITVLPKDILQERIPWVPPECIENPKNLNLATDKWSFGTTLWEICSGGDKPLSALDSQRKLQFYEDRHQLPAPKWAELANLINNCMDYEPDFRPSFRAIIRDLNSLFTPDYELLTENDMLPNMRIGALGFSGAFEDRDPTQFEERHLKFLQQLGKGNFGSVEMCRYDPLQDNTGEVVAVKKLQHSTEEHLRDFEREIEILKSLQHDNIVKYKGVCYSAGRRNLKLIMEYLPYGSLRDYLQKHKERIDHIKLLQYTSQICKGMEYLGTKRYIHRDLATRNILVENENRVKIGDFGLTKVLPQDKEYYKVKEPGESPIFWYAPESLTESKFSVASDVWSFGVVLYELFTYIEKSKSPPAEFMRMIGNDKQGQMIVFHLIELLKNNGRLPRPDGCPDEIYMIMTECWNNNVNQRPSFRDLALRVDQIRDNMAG

By IC50 is commonly meant the concentration that inhibits the measured activity by half. `Cc1ccc(Sc2ccccc2N2CCNCC2)c(C)c1` [vortioxetine hydrobromide]: the IC50 came to 6.5 µM at SRC and 8.53 µM on JAK2.
